Experimental data: US5157032A, “Mixed ligand complexes and uses thereof as binding agents and probes to DNA” (The Trustees of Columbia University In The City of New York, priority 1990, dated 1992)
Entries after “also recorded” stand apart in the source; their conditions may differ. Like-named read-outs stand apart in the source and are kept apart here.

Assays:
Solubility in buffer = assay type: physicochemical; conditions: for Solubilities in Buffer: chloride salts, 5 mM Tris, 50 mM NaCl, pH 7.5, 24 hrs., 25° C., SD in parentheses; for solubility: in words
Procedure: Measurement of Solubilities: Solubilities of the compounds wre measured by preparing saturated solutions of metal complex in buffer (50mM NaCl, 5 mM Tris, pH 7.5) and allowng the suspensions to equilibrate for 24 hours at 25 C. After that time, the solutions were spun down in an Eppendorff microcentrifuge at 15,000 rev/min for 2 minutes and the supernatant was carefully removed by pipette. After dilution, the ruthenuim concentrattions were measured by UV-visible absorbance.

calf thymus DNA [1] = assay: Equilibrium dialysis of racemic complexes against calf thymus DNA (Scatchard, dialysate CD); assay type: binding; parameters: Km × 10) equilibrium dialysis (intrinsic binding constant Kb): scale not given here; conditions: for Site size: fit to McGhee and von Hippel equation; for aggregation in solution / binding curve type (cooperativity) / binding affinity for DNA / Enantioselectivity: in words; for binding affinity for DNA: comparative; for Km × 10) equilibrium dialysis (intrinsic binding constant Kb): 5 mM Tris, 50 mM NaCl, pH 7.5, standard deviation in parentheses; for Enantioselectivity: dialysate circular dichroism
Procedure: Equilibrium Dialysis: Equlibrium dialysis of the reacemic metal complexes was perforemd against calf-thymus DNA using procedures described previously. (74) The buffer used was 5 mM Tris, 50 mM NaCl at pH 7.5. Samples were agitated on a shaker bath during equilibration which occurred after three to five days, as determined by control samples containing no DNA. After equilibration, volumes of liquid inside and outside the dialysis bags were determined (approximately 1 and 3 mls, respectively) and circular dichroism of the dialysate was meaxured on a Jasco J-40 spectropolarimeter. Final ruthenium concentration inside and outside the bags were measured by visible absorbance. Data anaylsis was performed on a VAX-780 using non-linear least squares analysis.
Equilibrium Dialysis: Equilibrium binding constants for the metal complexes with DNA may be determined classically by equilibrium dialysis. Calf thymus DNA was dialyzed against the series of mixed ligand complexes using a broad range of ruthenium concentrations. […] The results have been plotted according to Scatchard (88), where r is the ratio of bound metal to DNA-phosphate concentration, and cf is the concentration of free metal complex. The data were fit by non-linear least squares analysis to the McGhee and von Hippel equation (8945) governing random non-cooperative binding to a lattice,
where r is the ratio of bound concentration of ruthenium to the concentration of DNA-phosphate, cf is the concentration of ruthenium free in soltuion, Kb the intrinsic binding constant, and the integer /, which measures the degree of anti-cooperativeity, is the size of a binding site in base pairs. The curves shown reflect the best fit after variation of two parameters: the intrinsic binding constant, Kb, and binding stie size, /. For those complexes were cooperatively was observed, the equation (89) incorporating a cooperativity parameter was used.
Equilibrium dialysis experiments additionally offer the opportunity to examine any enantiomeric selectivities associated with binding. After dialysis of the DNA against the racemic mixture, optical activity observed in the dialysate refelects an enrichment in the dialysate in the less favored enantiomer. For most of the complexes, optical activity was found in the dialysate. Values for the extent of enantiomeric selectivity could not be quanitated in the absence of determinations of DE and assignments of absolute configuration. Assuming that the signs of the circular chroism in the ultraviolet ligand bands are the same for the these ligands as that for the parent phenanthroline complex, (90) we have assigned the absolute configuration of these complexes by comparison to spectra for enantiomers of Ru(phen)3^2+ and have compared levels of enantioselectivity qualitatively through measurements of circular dichroic intensity per rutheium bound. Based upon these assumptions, we find enantionmeric selectivities for the polyridyl complexes to reflect an enrichment in the isomer in the dialysate and the preferential binding of the isomer to the right-handed DNA. This observation is consistent with the preferential intercalation of isomers found earlier for Ru(phen)3^2+ in right-handed B-DNA. (63) We may also compare relative enantioselectivities for different ancillary ligands. […] The same comparison may be seen qualitatively between Ru(phen)2 DIP^2+ and Ru(bpy)2 DIP^2+.

calf thymus DNA [2] = assay: Absorption titration with calf thymus DNA (half-reciprocal, hypochromism); assay type: binding; conditions: in words; for binding to DNA: absorption changes too small for Kb
Excerpt: In plots of [DNA]/(εA -εF) versus [DNA], Kb is given by the ratio of the slope to intercept.

calf thymus DNA [3] = assay: Spectroscopic properties (absorption, emission, lifetime) on binding to calf thymus DNA; conditions: for Emission Enchantment (I/Io): 7 μM Ru, 40:1 nucleotide/metal, 20° C.
Procedure: Instrumentation: NMR spectra were recorded on a Varian VXR-300MHz spectormeter. FABS were performed using a VG Analytical 7070EQ Mas Spectrometer (78), and elemental analyses were done by Galbraith Laboratories in Nashville, Tenn. UV-Visible absorbance spectal were recorded on a Varian CARY-219 absorbance spectorphotometer. Extinction coefficients for the compounds were determined versus ruthenium concentrations obtained by atomic absorption spectroscopy with known ruthenium standards. [Ru(bpy)3 ]Cl2 solutions were also employed for these determinations as an internal standard. A varian AA-875 atomic absorption spectrophotometer was used for these determinations.
Emission spectra were measured on a Perkin-Elmer LS-5 fluorescence spectrometer. The samples were excited at their corresponding isosbestic points. All the measurements were made at 20° C. in a thermostatted cuvette holder with 3 nm entrance slit and 10 nm exit slit. Ruthenium solutions employed were 7 μM in concentration and claf thymus DNA was added to a ration of 40:1 nucleotide/metal; ruthenuim-DNA soltuions were allowed to incubate for 15 minutes before enhanced spectra were recorded. The emission enhancement factors were measured by comparing the intensitites at the emission spectral mixima in the absence ad presence of DNA, under similar conditions.
The limunescence lifetime measurements were done on a PRA SPC (single photon countining) spectometer with some minor modifications. The samples were excited with a nitrogen filled tnynratron gated flash lamp and the data were collected using a Tracor Northern 1710 multichannel analyser. The data were then transferred to a PDP-11/03 computer and deconvoluted with PRA software. […] concentrated solution of DNA (5mM DNA-phosphate) in buffer was added to a solution of the metal complex (4 μM) in buffer and allowed to equilibrate. Lifetimes of the samples were measured 0.5 hr after the metal complexes were mixed with DNA. All measurements were made at 20° C. and under air saturated conditions.
Furthermore, for all the complexes, this electronic transition is perturbed on binding to DNA.

B-form DNA = conditions: cited from earlier work
pBR322 DNA = assay: Unwinding of supercoiled pBR322 DNA (topoisomerase I assay); conditions: for EC50: read-out: Unwinding concentration, needed to unwind 11 of 22 supercoils, [DNA] 47 μM for phi complexes, 31.5 μM others, 60 min
DNA = assay: Luminescence in presence of DNA (preliminary); assay type: binding; conditions: in words
Excerpt: Ru(phen)2 (dppz)^2+, and Ru(dip)2 (dppz)^2+ seem have similar behavior as described above. […] We are presently tethering this complexes, Ru(bpy)2 (dppz)^2+, Ru(dppz)2 phen^2+, and Ru(phen)2 (dppz)^2+ to oligonucleotides to develop non-radioactive luminescent DNA probes for both heterogeneous and homogeneous assay systems. The probes, constructed in this way should luminesce only upon finding its target sequence.

[4] = tested on: distamycin binding sites on end-labeled DNA fragment; assay: Footprinting of distamycin; conditions: by Rh(phi)2 (bpy)^3+, 5'-end-labeled fragment
[5] = tested on: distamycin binding sites on end-labeled DNA fragment; conditions: cited crystallography; cited from earlier work
[6] = tested on: EcoRI site on end-labeled DNA fragment; conditions: cited from earlier work

[Ru+2].c1ccc(-c2ccnc3c2ccc2c(-c4ccccc4)ccnc23)cc1.c1ccc(-c2ccnc3c2ccc2c(-c4ccccc4)ccnc23)cc1.c1cnc2c(c1)ccc1cccnc12 [Ru(DIP)2 (phen)^2+]
Solubilities in Buffer (Solubility in buffer): 0.18 (.01) mM
solubility (Solubility in buffer; listed as Ru(DIP)2 (phen)2): only sparingly soluble in the buffer solution
solubility (Solubility in buffer; listed as Ru(DIP)2)phen)^2+): too insoluble
Site size (calf thymus DNA [1]): cooperative
aggregation in solution (calf thymus DNA [1]): tend to agfregate in solution
binding curve type (cooperativity) (calf thymus DNA [1]): cooperatiove binding
binding affinity for DNA (calf thymus DNA [1]): binding similar to that of Ru(phen2 DIP^2+
hypochromism / absorption change on DNA addition (calf thymus DNA [2]): greatest change in absorption
Emission Enchantment (I/Io) (calf thymus DNA [3]): 2.14 I/Io

[Ru+2].c1ccc(-c2ccnc3c2ccc2c(-c4ccccc4)ccnc23)cc1.c1ccc(-c2ccnc3c2ccc2c(-c4ccccc4)ccnc23)cc1.c1ccc(-c2ccnc3c2ccc2c(-c4ccccc4)ccnc23)cc1 [Ru(DIP)3^2+, reference compound]
enantiomer selectively bound by B-form DNA (B-form DNA): Δ-enantiomers
aggregation in solution (calf thymus DNA [1]): extensive aggregation
binding affinity for DNA (calf thymus DNA [1]): appear to bind DNA more avidly

[Ru+2].c1ccc(-c2ccccn2)nc1.c1ccc(-c2ccccn2)nc1.c1cnc2c(c1)ccc1cccnc12 [Ru(bpy)2 (phen)^2+]
EC50 (pBR322 DNA): 69 µM
Km × 10) equilibrium dialysis (intrinsic binding constant Kb) (calf thymus DNA [1]): 0.7(.07) × 10
Site size (calf thymus DNA [1]): 10-14 base pairs
hypochromism / absorption change on DNA addition (calf thymus DNA [2]): litle hypochromic effect
binding to DNA (calf thymus DNA [2]): bound very weakly
Emission Enchantment (I/Io) (calf thymus DNA [3]): 1.12 I/Io

[Ru+2].c1ccc(-c2ccccn2)nc1.c1ccc(-c2ccccn2)nc1.c1ccc(-c2ccccn2)nc1 [Ru(bpy)3^2+, reference compound]
unwinding of the helix (pBR322 DNA; in words): shows little significant unwinding of the helix
EC50 (pBR322 DNA): 650 µM
Km × 10) equilibrium dialysis (intrinsic binding constant Kb) (calf thymus DNA [1]): 0.7(.13) × 10
Site size (calf thymus DNA [1]): 6-12 base pairs
hypochromism / absorption change on DNA addition (calf thymus DNA [2]): litle hypochromic effect
binding to DNA (calf thymus DNA [2]): bound very weakly
Emission Enchantment (I/Io) (calf thymus DNA [3]): 1.06 I/Io
intercalation (calf thymus DNA [3]; in words): neither intercalates nor surface-binds to the helix

[Ru+2].c1ccc(-c2ccnc3c2ccc2c(-c4ccccc4)ccnc23)cc1.c1ccc(-c2ccnc3c2ccc2c(-c4ccccc4)ccnc23)cc1.c1ccc2nc3c4cccnc4c4ncccc4c3nc2c1 [Ru(dip)2 (dppz)^2+]
luminescence dependence on DNA (DNA): luminesce only in the presence of DNA but not in the presence of H2 O (or Buffer) alone

[Ru+2].c1ccc(-c2ccnc3c2ccc2c(-c4ccccc4)ccnc23)cc1.c1cnc2c(c1)ccc1cccnc12.c1cnc2c(c1)ccc1cccnc12 [Ru(phen)2 (DIP)^2+]
EC50 (pBR322 DNA): 9 µM
Solubilities in Buffer (Solubility in buffer): 9. (1.2) mM
solubility (Solubility in buffer): only sparingly soluble in the buffer solution
Site size (calf thymus DNA [1]): cooperative
aggregation in solution (calf thymus DNA [1]): tend to agfregate in solution
binding curve type (cooperativity) (calf thymus DNA [1]): cooperatiove binding
hypochromism / absorption change on DNA addition (calf thymus DNA [2]): greatest change in absorption
Emission Enchantment (I/Io) (calf thymus DNA [3]): 2.06 I/Io

[Ru+2].c1ccc2nc3c4cccnc4c4ncccc4c3nc2c1.c1cnc2c(c1)ccc1cccnc12.c1cnc2c(c1)ccc1cccnc12 [Ru(phen)2 (dppz)^2+]
luminescence dependence on DNA (DNA): luminesce only in the presence of DNA but not in the presence of H2 O (or Buffer) alone

O=C1c2cccnc2-c2ncccc21.[Ru+2].c1cnc2c(c1)ccc1cccnc12.c1cnc2c(c1)ccc1cccnc12 [Ru(phen)2 (flone)^2+, [Ru(phen)2 (4,5-diazafuorene-9-one)]Cl2]
Solubilities in Buffer (Solubility in buffer): 60. (2.2) mM
Enantioselectivity (calf thymus DNA [1]): no enantiomeric discrimination is apparent
Enantioselectivity (calf thymus DNA [1]; listed as Ru(phen) (flone)Cl): none
Site size (calf thymus DNA [1]): 9-12 base pairs
binding affinity for DNA (calf thymus DNA [1]): indistinguishable from that for Ru(phen)2 bpy^2+
binding affinity for DNA (calf thymus DNA [1]; listed as Ru(phen)^2+2. flone): much lower than would be expected based upon their solvent accessible surfaces
binding to DNA (calf thymus DNA [2]): bound very weakly

N=C1C(=N)c2ccccc2-c2ccccc21.[Ru+2].c1cnc2c(c1)ccc1cccnc12.c1cnc2c(c1)ccc1cccnc12 [Ru(phen)2 (phi)^2+]
Unwinding Angle (pBR322 DNA): 26 °
Unwinding Angle (pBR322 DNA; per molecule of bound complex): 26 degrees
EC50 (pBR322 DNA): 1.2 µM
Solubilities in Buffer (Solubility in buffer): 0.17 (.01) mM
Site size (calf thymus DNA [1]): 2-3 base pairs
intensity in circular dichroism per ruthenium bound (calf thymus DNA [1]; relative to Ru(bpy)2 phi^2+): more than three times greater
hypochromism / absorption change on DNA addition (calf thymus DNA [2]): hypochromism and a large red shift

[Ru].c1cnc2c(c1)ccc1cccnc12.c1cnc2c(c1)ccc1cccnc12.c1cnc2c(c1)ccc1cccnc12 [Ru(phen)3^2+, reference compound]
Unwinding Angle (pBR322 DNA): 19 °
Unwinding Angle (pBR322 DNA; per molecule of bound complex): 19 degrees
EC50 (pBR322 DNA): 9 µM
Solubilities in Buffer (Solubility in buffer): 159. (5.3) mM
enantiomer selectively bound by B-form DNA (B-form DNA): Δ-enantiomers
Site size (calf thymus DNA [1]): 4 base pairs
Emission Enchantment (I/Io) (calf thymus DNA [3]): 1.87 I/Io

Cn1cc(NC(=O)c2cc(NC(=O)c3cc(NC=O)cn3C)cn2C)cc1C(=O)NCCC(=N)N [distamycin]
distamycin binding sites footprinted [4]: strong A6 binding site (41-47 bp); also recorded: AATT (67-70, 119-12), TAAT (73-76), AAATT (101-105), and TTAT (107-110)
binding site size by crystal structure [5]: six

EcoRI: restriction endonuclease EcoRI
crystal binding site size ([6]; cited crystallography): ten
DNA contact length of EcoRI ([6]; x-ray co-crystal): 10 base pairs
